# In US20220267288A1, “CARDIAC THERAPEUTIC” (priority 2019, published 2022):
# Like-named read-outs stand apart in the source and are kept apart here.
# Legend:
# [1] = cited from earlier work
# CYP2J2 [2] = biological target: T1, CYP2J2 (Homo sapiens, UniProt P51589); test: Time- and concentration-dependent inactivation (MBI) of CYP2J2, rivaroxaban as probe substrate; type: biochemical; parameters: purchased BD Gentest (Woburn, Mass.)
# T1 sequence (P51589 1-502): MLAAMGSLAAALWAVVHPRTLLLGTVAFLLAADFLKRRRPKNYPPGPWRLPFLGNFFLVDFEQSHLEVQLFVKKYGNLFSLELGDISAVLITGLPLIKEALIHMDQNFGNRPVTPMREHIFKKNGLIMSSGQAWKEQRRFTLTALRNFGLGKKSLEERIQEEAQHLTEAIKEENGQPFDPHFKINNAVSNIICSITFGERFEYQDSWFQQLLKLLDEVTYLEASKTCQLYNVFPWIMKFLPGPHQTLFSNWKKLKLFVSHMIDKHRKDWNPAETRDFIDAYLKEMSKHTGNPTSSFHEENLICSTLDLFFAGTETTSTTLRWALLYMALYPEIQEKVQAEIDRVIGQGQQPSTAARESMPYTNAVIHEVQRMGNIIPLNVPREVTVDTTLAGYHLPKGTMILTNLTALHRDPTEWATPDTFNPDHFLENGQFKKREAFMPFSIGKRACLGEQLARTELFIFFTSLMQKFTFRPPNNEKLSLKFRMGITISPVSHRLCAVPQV
# Description: Incubations were conducted in triplicates in 96-well plates. Primary incubation mixtures comprising various concentrations of inhibitor (0-20 μM) were pre-incubated at 37° C. for 3 min with CYP450 enzymes (20 pmol/m L) and NADPH B in potassium phosphate buffer (100 mM, pH 7.4). To initiate the enzymatic reaction, 5 μL NADPH A was added to the primary incubation. The final primary incubation mixture volume was 100 μL and contained <1% v/v organic solvent. At different pre-incubation time points (3, 8, 15, 22, 30, and 45 min) after the addition of NADPH A, 5 μL aliquots of the primary incubation were transferred to 95 μL of the secondary incubation containing 50 μM rivaroxaban, the NADPH A and B, and potassium phosphate buffer (100 mM, pH 7.4) to yield a 20-fold dilution. The secondary incubation mixtures were incubated at 37° C. for 30 min with CYP2J2, before 80 μL aliquots were removed and quenched with an equal volume of ice-cold ACN containing 4 μM dexamethasone as IS. The samples were then centrifuged at 3220 g at 4° C. for 30 min before transferring the supernatant to a 96-well plate for liquid chromatography-tandem mass spectrometry (LC-MS/MS) analysis. The main rivaroxaban metabolite, morpholinone hydroxylated metabolite, was quantified using LC-MS/MS analysis.
# The mean of triplicate peak area ratios for each concentration and pre-incubation time was normalized to that of 0 μM with the same pre-incubation time. The amount of rivaroxaban metabolite formed during the secondary incubation, a measure of the probe substrate activity remaining, was computed and the natural logarithm of this measure was plotted against inactivation pre-incubation time for each inactivator concentration. […]
# In equation 1, kinact=maximum inactivation rate constant at infinite inactivator concentration (in min^−1); KI=concentration of inactivator at the half-maximal rate constant of inactivation (in μM); [I]=in vitro inactivator concentration (in μM). MBI potency (kinact/KI ratio, μM-1·min-1) against human recombinant CYP2J2 is determined for each compound. […]
# CYP2J2 [3] = biological target: T1, CYP2J2; parameters: endogenous in cells; host or cells: hiPSC-CM (from human foreskin fibroblasts); settings: PBPK parameter; read-out: Reversible inhibition Ki CYP2J2; cited from earlier work
# CYP3A4 = biological target: T2, CYP3A4 (Homo sapiens, UniProt P08684); test: Time- and concentration-dependent inactivation of CYP3A4, rivaroxaban probe; type: in vitro ADME; settings: for KI (inactivation): human, recombinant CYP3A4, pH 7.4, probe rivaroxaban (50 μM), in vitro data obtained, rivaroxaban probe, read-out: Mechanism-based inactivation KI CYP3A4
# T2 construct: purchased BD Gentest (Woburn, Mass.)
# Description: Incubations were conducted in triplicates in 96-well plates. Primary incubation mixtures comprising various concentrations of inhibitor (0-20 μM) were pre-incubated at 37° C. for 3 min with CYP3A4 or CYP3A5 (20 pmol/mL) and NADPH B in potassium phosphate buffer (100 mM, pH 7.4). To initiate the enzymatic reaction, 5 μL NADPH A was added to the primary incubation. The final primary incubation mixture volume was 100 μL and contained <1% v/v organic solvent. At different pre-incubation time points (3, 8, 15, 22, 30, and 45 min) after the addition of NADPH A, 5 μL aliquots of the primary incubation were transferred to 95 μL of the secondary incubation containing 50 μM rivaroxaban, the NADPH A and B, and potassium phosphate buffer (100 mM, pH 7.4) to yield a 20-fold dilution. The secondary incubation mixtures were incubated at 37° C. for 2 h with CYP3A4 or CYP3A5 before 80 μL aliquots were removed and quenched with an equal volume of ice-cold ACN containing 4 μM dexamethasone as IS. The samples were then centrifuged at 3220 g at 4° C. for 30 min before transferring the supernatant to a 96-well plate for liquid chromatography-tandem mass spectrometry (LC-MS/MS) analysis. The main rivaroxaban metabolite, morpholinone hydroxylated metabolite, was quantified using LC-MS/MS analysis.
# The mean of triplicate peak area ratios for each inhibitor concentration and pre-incubation time was normalized to that of 0 μM inhibitor with the same pre-incubation time. The amount of rivaroxaban metabolite formed during the secondary incubation, a measure of the probe substrate activity remaining, was computed and the natural logarithm of this measure was plotted against inactivation pre-incubation time for each inactivator concentration. For each concentration, the data was then fitted to a linear regression model, through which kobs (apparent inactivation rate constant) was obtained as the negative gradient of the linear regression. […]
# T2 sequence (P08684 whole entry): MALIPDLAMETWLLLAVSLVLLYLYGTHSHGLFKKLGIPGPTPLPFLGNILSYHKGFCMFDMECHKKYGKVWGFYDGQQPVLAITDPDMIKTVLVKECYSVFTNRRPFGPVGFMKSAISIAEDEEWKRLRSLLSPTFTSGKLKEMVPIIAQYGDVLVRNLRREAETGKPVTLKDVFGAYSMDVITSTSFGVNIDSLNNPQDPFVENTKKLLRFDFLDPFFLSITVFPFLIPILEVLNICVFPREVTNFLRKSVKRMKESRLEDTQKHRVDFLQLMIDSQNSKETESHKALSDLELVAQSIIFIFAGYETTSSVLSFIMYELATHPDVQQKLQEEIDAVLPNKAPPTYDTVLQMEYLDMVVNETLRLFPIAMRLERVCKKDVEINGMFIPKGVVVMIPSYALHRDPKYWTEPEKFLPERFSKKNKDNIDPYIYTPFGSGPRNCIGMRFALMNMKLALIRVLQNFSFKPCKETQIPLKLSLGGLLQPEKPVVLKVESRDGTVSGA
structure (smiles),measurement,setting,value
CCCCc1oc2ccc(NS(C)(=O)=O)cc2c1C(=O)c1ccc(OCCCN(CCCC)CCCC)cc1.Cl [Dronedarone],Caco-2 permeability,[1]; PBPK parameter,0.595 ×10⁻⁶ cm/s
same,Kp of tissues: Adipose,[1]; PBPK parameter,1
same,Kp of tissues: Heart,[1]; PBPK parameter,1
same,Kp of tissues: Kidney,[1]; PBPK parameter,1
same,Kp of tissues: Liver,[1]; PBPK parameter,38.05
same,Kp of tissues: Lung,[1]; PBPK parameter,64.01
same,fu,[1]; PBPK parameter,0.003
same,log P,[1]; PBPK parameter,6.46
same,pKa,"[1]; PBPK parameter, monoprotic base",9.4
same,Solubility-pH profile,[1]; pH 3,1.6 mg/mL
same,Solubility-pH profile,[1]; pH 4,1.6 mg/mL
same,Solubility-pH profile,[1]; pH 5,1.5 mg/mL
same,Solubility-pH profile,[1]; pH 6,0.1 mg/mL
same,Solubility-pH profile,[1]; pH 7,0.01 mg/mL
same,"inactivation (MBI) of CYP2J2, in words",CYP2J2 [2],demonstrated inactivation of CYP2J2
same,Ki,CYP2J2 [3],930 nM
same,KI (inactivation),CYP3A4,5300 nM
same,MBI potency against CYP3A4,CYP3A4; rivaroxaban probe substrate,0.00505 AV min^−1
"Cl.[2H]c1c(NS(C)(=O)=O)c([2H])c2c(C(=O)c3ccc(OCCCN(CCCC)CCCC)cc3)c(CCCC)oc2c1[2H] [Poyendarone, Methanesulfonamide, N-(2-butyl-3-(4-(3-(dibutylamino)propoxy)benzoyl)-1-benzo(4,6,7-d3)-furan-5-yl)hydrochloride]",Caco-2 permeability,"[1]; PBPK parameter, assumed",0.595 ×10⁻⁶ cm/s
same,Kp of tissues: Liver,"[1]; PBPK parameter, assumed",38.05
same,Kp of tissues: Lung,"[1]; PBPK parameter, assumed",64.01
same,pKa,"[1]; PBPK parameter, assumed",9.4
same,Kp of tissues: Adipose,[1]; PBPK parameter,1
same,Kp of tissues: Heart,[1]; PBPK parameter,1
same,Kp of tissues: Kidney,[1]; PBPK parameter,1
same,log P,[1]; PBPK parameter,6.442
same,Additional HLM clearance,[1]; assumed,55 μL/min/mg microsomal protein
same,Intrinsic solubility,[1]; assumed,2.01 × 10^−3 (assumed) mg/mL
same,"inactivation (MBI) of CYP2J2, in words",CYP2J2 [2],does not cause MBI of CYP2J2
same,Ki,CYP2J2 [3],930 nM
same,KI (inactivation),CYP3A4,3180 nM
